# Experimental data reported in patent US20120195978A1, “CAPCNA PEPTIDE THERAPEUTICS FOR CANCER” (Indiana University Research and Technology Corpora, priority 2009, published 2012).
# No end group written: not given here.
# Experiments:
# [1] = system: U937 cells; assay: Cytotoxic effects of R9-linked caPCNA peptides, % cell death by flow cytometry; type: cell-based; settings: for Effect of alanine substitution on cytotoxic action of the peptide (in words): compared with unsubstituted R9-caPCNA peptide
# Procedure: R9 refers to a cell penetrating peptide that includes a polyarginine sequence e.g., nine contiguous arginine residues. Alanine substitutions in the caPCNA peptide affect its cytotoxic action. U937 cells were treated with each alanine substituted peptide and the scrambled peptide and % cell death evaluated by flow cytometry.
# [2] = system: HCC1937 cells lacking BRCA1; assay: MTT assay, caPCNA peptides alone and in combination with cisplatin; type: cell-based, human
# Procedure: Breast cancer cells were obtained from a patient harboring a hereditary mutation in BRCA1, a major component of DNA double strand break repair (HCC1937 cells). HCC1937 is a near-tetraploid cell line from mammary gland whose cells are homozygous for a frameshift mutation in BRCA1. The cell line is available at ATCC.
# MTT [3-(4,5-dimethylthiazol-2-yl)-2,5-diphenyltetrazolium bromide] assays were conducted with caPCNA peptides at a variety of time points both alone and in combination with a DNA damaging agent e.g., cisplatin in HCC1937 and HCC1937+wild-type BRCA1 cells. The MTT assay is based on the ability of a mitochondrial dehydrogenase enzyme from viable cells to cleave the tetrazolium rings of the pale yellow MTT dye and form dark blue formazan crystals. These formazan crystals are largely impermeable to cell membranes and thus accumulate within healthy cells. Solubilization of the cells by the addition of a detergent results in the liberation and solubilization of the crystals. The number of proliferating cells is directly proportional to the level of formazan product created. The color can then be quantified using a simple colorimetric assay. The results are read on a multiwall scanning spectrophotometer (ELISA reader). The peptides used in these experiments including caPCNA peptide, Q131A ([…] (SEQ ID NO: 5)), and P129A ([…] (SEQ ID NO: 3)) were ordered and obtained from Anaspec (Fremont, Calif.). ca PCNA peptide was dissolved in sterile 1×PBS solution to create a 1.5 mM stock concentration. caPCNA peptides with alanine substitutions (e.g., P129A (SEQ ID NO: 3) and Q131A (SEQ ID NO: 5)) were dissolved in sterile 1×PBS solution to create 1.0 mM stock solutions.
# MTT assays: The efficacy of caPCNA peptides (caPeptides) were tested using the MTT assays: HCC1937 and HCC137+wildtype BRCA1 cells were grown in DMEM 1× (supplemented with 10% fetal bovine serum and 5% penicillin/streptomycin) and were plated at a densities of 5.5×10^3 or 7×10^3, respectively, in 96 well plates (100 μL total volume per well) and allowed to attach overnight in a 37° C. incubator (5% CO2). Then, caPCNA peptide stock solution was diluted to final working concentrations in DMEM 1× (10% fetal bovine serum and 5% penicillin/streptomycin) of 150 μM, 100 μM, 75 μM, 50 and 25 μM. Media was removed from cells and replaced with media containing caPCNA peptide at various concentrations (200 μL total volume per well). Cells were cultured with caPCNA peptide-containing media for 24, 48 or 72 hours. At the appropriate treatment timepoint, 20 μL MTT (5 mg/mL in PBS) reagent was added to each well and plates were incubated for an additional 4 hours. Media/dye solution was then aspirated and 200 μL DMSO was added to each well. Plates were rocked at room temperature for five minutes to dissolve crystals and transferred to an ELISA plate reader. Absorbance was measured at 550 nm. The extent to which caPeptides inhibited cell proliferation was calculated as a percentage of the absorbance in each well containing caPCNA peptide relative to wells containing no caPCNA peptide (negative control) for both HCC1937 and HCC1937+wild-type BRCA1 cells.
# Efficacy of P129A (SEQ ID NO: 3) and Q131A (SEQ ID NO: 5) caPCNA peptides: Cells were cultured and plated in 96 well plates as described herein. P129A (SEQ ID NO: 3) or Q131A (SEQ ID NO: 5) stock solution was diluted to final working concentrations in DMEM 1× (10% fetal bovine serum and 5% penicillin/streptomycin) of 100 μM, 75 μM, 50 μM, 25 μM, and 12.5 μM. Media was removed from cells and replaced with media containing P129A (SEQ ID NO: 3) or Q131A (SEQ ID NO: 5) caPCNA peptides at various concentrations (200 μL total volume per well) and cells were cultured with peptide-containing media for 24 hours. After 24 hours, the MTT assay was completed and data analysis was performed as described herein. […]
# [3] = system: HCC1937+wild-type BRCA1 cells; assay: as above; type: cell-based, human
# Procedure: As a genetically matched control, wild-type BRCA1 has been transduced into HCC1937 cells (referred to as HCC1937+wild-type BRCA1). HCC1937+wild-type BRCA1 cells were selected for maintenance of the vector using 1 μg/mL puromycin. All cells in these assays were used at passage numbers <25.
# MTT [3-(4,5-dimethylthiazol-2-yl)-2,5-diphenyltetrazolium bromide] assays were conducted with caPCNA peptides at a variety of time points both alone and in combination with a DNA damaging agent e.g., cisplatin in HCC1937 and HCC1937+wild-type BRCA1 cells. […] The color can then be quantified using a simple colorimetric assay. The results are read on a multiwall scanning spectrophotometer (ELISA reader). […]
# MTT assays: The efficacy of caPCNA peptides (caPeptides) were tested using the MTT assays: HCC1937 and HCC137+wildtype BRCA1 cells were grown in DMEM 1× (supplemented with 10% fetal bovine serum and 5% penicillin/streptomycin) and were plated at a densities of 5.5×10^3 or 7×10^3, respectively, in 96 well plates (100 μL total volume per well) and allowed to attach overnight in a 37° C. incubator (5% CO2). […] Plates were rocked at room temperature for five minutes to dissolve crystals and transferred to an ELISA plate reader. Absorbance was measured at 550 nm. […]
# [4] = system: MCF 10A (non-malignant); assay: Preferential killing of cancer cells by R9-caPeptide; type: cell-based
# [5] = system: MCF 7 (breast cancer); assay: as above; type: cell-based
# [6] = system: HCC1937+wild-type BRCA1 cells; assay: Clonogenic survival assay after caPCNA peptide treatment; type: cell-based, human; settings: 100 μM peptide for 48 hours, 13 days growth
# Procedure: (§1) Clonogeizic survival assay: Clonogenic survival after caPCNA peptide treatment: The purpose of this experiment was to determine the effects of high caPCNA peptide treatment (100 μM caPCNA peptide for 48 hours) on ability of cells plated at low density to proliferate and form colonies. HCC1937 and HCC1937+wild-type BRCA1 cells were plated in 6-well plates and allowed to attach overnight at 37° C.
# (§2) Then, media was removed and replaced with 100 μM caPCNA peptide in DMEM 1× (10% fetal bovine serum and 5% penicillin/streptomycin). Untreated cells were used as a negative control. Plates were incubated with media containing peptide for 48 hours. Live cells were then collected, counted, plated at low density ([…] cells in 10 cm2 dishes) and allowed to grow in DMEM 1× (20% fetal bovine serum, 5% penicillin/streptomycin) for 13 days. After 13-day incubation, media was removed and plates were washed twice with 1×PBS. Cells were fixed with 70% EtOH for 10 minutes, dried, and stained for 1 hour with 20% Giemsa diluted in MilliQ water. Dye was removed; plates were rinsed, dried overnight and photographed. Images shown are representative of results obtained for treated and untreated HCC1937 and HCC1937+wild-type BRCA1 cells.
# [7] = system: HCC1937 cells; assay: as above; type: cell-based, human; settings: 100 μM peptide for 48 hours, 13 days growth; effect more pronounced than in cells with wild-type BRCA1
# Procedure: as §1, §2
# [8] = HCC1937 and HCC1937+wild-type BRCA1 cells, 24 hours
compound,measurement,setting,value
"A8-sub. Peptide: R9-linked caPCNA 126-133 peptide with alanine at position 8, Y133 (SEQ ID NO: 66) (RRRRRRRRRLGIPEQEA; R9 linked)",Effect of alanine substitution on cytotoxic action of the peptide (in words),[1],reduced cytotoxic activity
LGIPEAEY [Peptide Q131A],Efficacy in comparison to wild-type peptides (MTT),[2]; [8],enhanced efficacy
same,Rank of efficacy among the peptides tested (MTT),[2]; [8],appears to be more effective of these peptides tested
"A4-sub. Peptide: R9-linked caPCNA 126-133 peptide with alanine at position 4, P129 (SEQ ID NO: 62) (RRRRRRRRRLGIAEQEY; R9 linked)",Effect of alanine substitution on cytotoxic action of the peptide (in words),[1],increase in cytotoxicity
"N.N.[Cl][Pt][Cl] [cisplatin, reference compound]",Sensitivity of cells to cisplatin (MTT),"[3]; HCC1937+wild-type BRCA1 cells, FIG. 3B",relatively resistant
same,IC50,"[3]; HCC1937 cells with BRCA1, cisplatin alone, FIG. 4B, read-out: IC50 value for cisplatin alone (growth inhibition)",> 200 µM
same,IC50,"[2]; HCC1937 cells lacking BRCA1, cisplatin alone, FIG. 4A, read-out: IC50 value for cisplatin alone (growth inhibition)",~155 µM
same,Sensitivity of cells to cisplatin (MTT),"[2]; HCC1937 cells, FIG. 3A",relatively resistant
"R9-caPeptide: R9 (nonaarginine)-linked caPCNA peptide of Table 6; exact sequence not printed there (LGIPEQEY; also: linked to nonaarginine (R9), site not given here; UniProt P12004 126-133, looked up, fragment) [Peptide R9-caPeptide]",% Dead Cells,[4],18.2%
same,% Dead Cells,[5],91.5%
"A6-sub. Peptide: R9-linked caPCNA 126-133 peptide with alanine at position 6, Q131 (SEQ ID NO: 64) (RRRRRRRRRLGIPEAEY; R9 linked)",Effect of alanine substitution on cytotoxic action of the peptide (in words),[1],increase in cytotoxicity
"A5-sub. Peptide: R9-linked caPCNA 126-133 peptide with alanine at position 5, E130 (SEQ ID NO: 63) (RRRRRRRRRLGIPAQEY; R9 linked)",Effect of alanine substitution on cytotoxic action of the peptide (in words),[1],neutral change
LGIAEQEY [Peptide P129A],Efficacy in comparison to wild-type peptides (MTT),[2]; [8],enhanced efficacy
"A2-sub. Peptide: R9-linked caPCNA 126-133 peptide with alanine at position 2, G127 (SEQ ID NO: 60) (RRRRRRRRRLAIPEQEY; R9 linked)",Effect of alanine substitution on cytotoxic action of the peptide (in words),[1],neutral change
"caPCNA peptide: caPCNA-derived peptide (aa 126-133) obtained from Anaspec; the figure legends call it R9-caPCNA / R9-PCNA peptide (LGIPEQEY; also: R9 (nonaarginine) linked, site not given here; UniProt P12004 126-133, looked up, fragment)",Sensitivity of cells to caPCNA peptides (MTT),"[2]; HCC1937 in comparison to HCC1937+wild-type BRCA1 cells, 24, 48 and 72 hour treatment",trend of increased sensitivity
same,Colony formation,[6],inhibits colony formation
same,Colony formation,[7],inhibits colony formation
"A7-sub. Peptide: R9-linked caPCNA 126-133 peptide with alanine at position 7, E132 (SEQ ID NO: 65) (RRRRRRRRRLGIPEQAY; R9 linked)",Effect of alanine substitution on cytotoxic action of the peptide (in words),[1],increase in cytotoxicity
"A3-sub. Peptide: R9-linked caPCNA 126-133 peptide with alanine at position 3, I128 (SEQ ID NO: 61) (RRRRRRRRRLGAPEQEY; R9 linked)",Effect of alanine substitution on cytotoxic action of the peptide (in words),[1],decrease in cytotoxic action but not to the levels of aa126 or aa133
"Unsub. Peptide: R9-linked caPCNA 126-133 peptide LGIPEQEY, unsubstituted (SEQ ID NO: 58) (RRRRRRRRRLGIPEQEY; R9 linked)",% cancer cell death,[1]; flow cytometry,43 ± 10%
"A1-sub. Peptide: R9-linked caPCNA 126-133 peptide with alanine at position 1, L126 (SEQ ID NO: 59) (RRRRRRRRRAGIPEQEY; R9 linked)",Effect of alanine substitution on cytotoxic action of the peptide (in words),[1],reduced cytotoxic activity
